Experimental data as given in ChEMBL document CHEMBL1151292, “Antineoplastic activity and cytotoxicity of flavones, isoflavones, and flavanones” (1979).
≈ marks a conversion by molar mass, not a printed value. Calls of active or inactive are those of the source. Unless noted, the calls are words filed in the database; no cut-off is given here.

Key:
CCRF S-180 = assay: In vivo antitumor activity against mouse S180 cells; assay type: functional, organism-based
L1210 = assay: In vivo antitumor activity against mouse L1210 cells; assay type: functional, organism-based
CA-755 = assay: In vivo antitumor activity against mouse CA-755 cells; assay type: functional, organism-based
KB = assay: Cytotoxicity against human KB cells; assay type: functional; details: read-out: ED50 (the source's name)
B16 = assay: In vivo antitumor activity against mouse B16 carcinoma cells; assay type: functional, organism-based
[1] = test system: Lewis lung carcinoma cell line; assay: In vivo antitumor activity against mouse LLC cells; assay type: functional, organism-based
P388 = assay: In vivo antitumor activity against mouse P388 cells; assay type: functional, organism-based
PX = assay: In vivo antitumor activity against hamster PX cells; assay type: functional, organism-based; details: Cricetinae
P1 = assay: In vivo antitumor activity against hamster P1 cells; assay type: functional, organism-based; details: Cricetinae
Rattus norvegicus = assay: In vivo antitumor activity against rat dunning leukemia cells; assay type: functional, organism-based
P1798 = assay: In vivo antitumor activity against mouse P1798 cells; assay type: functional, organism-based
FV = assay: In vivo antitumor activity against mouse FV cells; assay type: functional, organism-based

Compound	Activity (CCRF S-180)	Activity (L1210)	Activity (CA-755)	EC50 (KB) [µg/mL]	Activity (B16)	Activity [1]	Activity (P388)	Activity (PX)	Activity (P1)	Activity (Rattus norvegicus)	Activity (P1798)	Activity (FV)
O=c1c(O)c(-c2ccccc2)oc2ccccc12 [FLAVONOL]	inactive	inactive	inactive	0.2 (≈ 0.839 µM)	inactive	inactive	inactive	–	–	–	–	–
COc1ccc(-c2cc(=O)c3c(OC)c(OC)c(OC)c(OC)c3o2)cc1 [TANGERETIN]	inactive	inactive	inactive	15 (≈ 40.3 µM)	–	–	–	Active	inactive	–	–	–
COc1cc(O)c2c(=O)cc(-c3ccccc3)oc2c1 [TECHTOCHRYSIN]	–	inactive	–	49 (≈ 183 µM)	–	–	–	–	–	inactive	inactive	–
Cc1ccc2oc(-c3ccccc3)c(O)c(=O)c2c1	inactive	inactive	–	2 (≈ 7.93 µM)	inactive	–	inactive	–	–	–	–	–
O=c1cc(-c2ccc(O)cc2)oc2cc(O)cc(O)c12 [APIGENIN]	–	inactive	–	7.4 (≈ 27.4 µM)	–	–	–	–	–	inactive	inactive	–
COc1cccc(OC)c1-c1oc2ccccc2c(=O)c1O	inactive	inactive	–	1 (≈ 3.35 µM)	–	–	inactive	–	–	–	–	inactive
O=c1c(O)c(-c2cc(O)c(O)c(O)c2)oc2cc(O)cc(O)c12 [MYRICETIN]	–	inactive	–	15 (≈ 47.1 µM)	inactive	–	–	–	–	–	–	–
